Source: PMC3602154 (PLoS ONE, 2013)

What was measured:
A2B2 = A2B2 (Rattus norvegicus, UniProt P12389+P12390); experiment: PDSP radioligand binding, nicotinic receptor α2 ß2
From the text: (§1) [17] and http://pdsp.med.unc.edu/UNC-CH%20Protocol%20Book.pdf.

[1] = target: NET (norepinephrine transporter) (Homo sapiens, UniProt P23975); experiment: PDSP radioligand binding, norepinephrine transporter; conditions: for inhibition at 10 µM: quadruplicate, read-out: NET Primary Screen inhibition of binding
From the text: as §1

hDAT = hDAT (Homo sapiens, UniProt Q01959); experiment: PDSP radioligand binding, dopamine transporter
From the text: as §1

M2 = target: T1, M2 (Homo sapiens, UniProt P08172); experiment: PDSP radioligand binding, muscarinic receptor M2
T1 sequence (P08172 1-466): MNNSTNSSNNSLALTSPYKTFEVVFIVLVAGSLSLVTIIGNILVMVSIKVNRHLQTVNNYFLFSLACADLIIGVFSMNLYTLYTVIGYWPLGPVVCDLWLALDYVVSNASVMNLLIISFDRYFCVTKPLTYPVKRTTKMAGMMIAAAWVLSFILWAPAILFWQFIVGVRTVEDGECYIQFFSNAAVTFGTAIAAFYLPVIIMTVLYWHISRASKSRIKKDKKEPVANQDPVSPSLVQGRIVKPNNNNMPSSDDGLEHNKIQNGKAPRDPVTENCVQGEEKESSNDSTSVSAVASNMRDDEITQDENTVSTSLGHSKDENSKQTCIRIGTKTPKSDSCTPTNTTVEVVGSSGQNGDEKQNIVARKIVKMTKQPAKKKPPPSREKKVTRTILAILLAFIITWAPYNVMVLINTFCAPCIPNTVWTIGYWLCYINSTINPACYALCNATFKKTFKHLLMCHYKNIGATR
From the text: as §1

Beta1 = Beta1 (Homo sapiens, UniProt P08588); experiment: PDSP radioligand binding, adrenoceptor ß1
From the text: as §1

Alpha1D = target: T2, Alpha1D (Homo sapiens, UniProt P25100); experiment: PDSP radioligand binding, adrenoceptor α1D
T2 sequence (P25100 1-572): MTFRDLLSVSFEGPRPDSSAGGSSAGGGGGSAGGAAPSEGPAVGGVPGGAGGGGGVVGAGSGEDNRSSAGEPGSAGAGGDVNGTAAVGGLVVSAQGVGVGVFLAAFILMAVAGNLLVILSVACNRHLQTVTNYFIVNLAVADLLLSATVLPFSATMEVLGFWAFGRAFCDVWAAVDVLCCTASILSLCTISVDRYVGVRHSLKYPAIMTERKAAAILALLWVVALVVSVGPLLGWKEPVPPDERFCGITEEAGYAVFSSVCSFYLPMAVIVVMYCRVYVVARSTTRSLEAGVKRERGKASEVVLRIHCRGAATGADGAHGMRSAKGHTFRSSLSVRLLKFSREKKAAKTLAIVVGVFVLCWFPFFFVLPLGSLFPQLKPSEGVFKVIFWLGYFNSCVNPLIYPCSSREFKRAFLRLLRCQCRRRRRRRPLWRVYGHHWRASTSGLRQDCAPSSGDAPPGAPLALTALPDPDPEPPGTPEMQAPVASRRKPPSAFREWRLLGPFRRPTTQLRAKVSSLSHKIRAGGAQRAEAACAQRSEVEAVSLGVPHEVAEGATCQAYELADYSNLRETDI
From the text: as §1

Alpha2B = target: T3, Alpha2B (Homo sapiens, UniProt P18089); experiment: PDSP radioligand binding, adrenoceptor α2B
T3 sequence (P18089 1-450): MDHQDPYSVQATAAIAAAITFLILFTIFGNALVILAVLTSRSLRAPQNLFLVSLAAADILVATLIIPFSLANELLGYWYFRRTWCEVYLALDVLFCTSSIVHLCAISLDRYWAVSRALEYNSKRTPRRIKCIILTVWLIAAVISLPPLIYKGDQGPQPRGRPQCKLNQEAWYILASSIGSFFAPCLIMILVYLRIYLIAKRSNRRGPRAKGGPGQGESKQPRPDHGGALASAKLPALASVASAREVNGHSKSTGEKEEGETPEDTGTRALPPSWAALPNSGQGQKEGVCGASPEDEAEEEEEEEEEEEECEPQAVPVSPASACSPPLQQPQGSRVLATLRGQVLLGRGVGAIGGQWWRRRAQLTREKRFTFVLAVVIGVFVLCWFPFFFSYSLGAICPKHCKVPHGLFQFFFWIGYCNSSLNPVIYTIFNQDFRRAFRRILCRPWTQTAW
From the text: as §1

5-HT1B = 5-HT1B (Homo sapiens, UniProt P28222); experiment: PDSP radioligand binding, serotonin receptor 5-HT1B
From the text: as §1

D5 = D5 (Homo sapiens, UniProt P21918); experiment: PDSP radioligand binding, dopamine receptor D5
From the text: as §1

H1 = H1 (Homo sapiens, UniProt P35367); experiment: PDSP radioligand binding, histamine receptor H1
From the text: as §1

M4 = target: T4, M4 (Homo sapiens, UniProt P08173); experiment: PDSP radioligand binding, muscarinic receptor M4
T4 sequence (P08173 1-479): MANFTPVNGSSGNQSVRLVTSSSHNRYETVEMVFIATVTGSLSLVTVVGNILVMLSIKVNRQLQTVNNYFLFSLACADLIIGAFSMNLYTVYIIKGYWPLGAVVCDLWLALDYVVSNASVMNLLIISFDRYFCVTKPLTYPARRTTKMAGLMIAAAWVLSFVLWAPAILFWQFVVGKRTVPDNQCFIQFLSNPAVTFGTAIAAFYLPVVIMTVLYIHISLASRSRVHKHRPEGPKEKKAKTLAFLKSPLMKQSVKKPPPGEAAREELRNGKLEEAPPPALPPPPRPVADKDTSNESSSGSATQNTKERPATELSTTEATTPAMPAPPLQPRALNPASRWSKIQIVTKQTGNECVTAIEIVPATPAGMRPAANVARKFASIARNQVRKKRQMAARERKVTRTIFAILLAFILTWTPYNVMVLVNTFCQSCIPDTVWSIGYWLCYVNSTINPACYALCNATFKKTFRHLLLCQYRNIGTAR
From the text: as §1

5-HT2C = target: T5, 5-HT2C (Homo sapiens, UniProt P28335); experiment: PDSP radioligand binding, serotonin receptor 5-HT2C
T5 sequence (P28335 33-458): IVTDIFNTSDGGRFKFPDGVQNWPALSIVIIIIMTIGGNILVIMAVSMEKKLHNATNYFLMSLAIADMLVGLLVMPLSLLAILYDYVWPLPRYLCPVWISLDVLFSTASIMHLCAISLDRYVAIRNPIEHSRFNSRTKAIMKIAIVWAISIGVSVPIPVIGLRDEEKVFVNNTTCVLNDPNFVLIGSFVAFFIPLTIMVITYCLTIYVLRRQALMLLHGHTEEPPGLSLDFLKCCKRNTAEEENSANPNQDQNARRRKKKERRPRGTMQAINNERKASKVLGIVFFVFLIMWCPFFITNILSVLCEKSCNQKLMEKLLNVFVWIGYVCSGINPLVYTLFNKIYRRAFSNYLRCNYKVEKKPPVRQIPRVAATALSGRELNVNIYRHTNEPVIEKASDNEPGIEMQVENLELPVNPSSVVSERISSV
From the text: as §1

5-ht5a = 5-ht5a (Homo sapiens, UniProt P47898); experiment: PDSP radioligand binding, serotonin receptor 5-HT5
From the text: as §1

Chain of D5 (P21918 whole entry): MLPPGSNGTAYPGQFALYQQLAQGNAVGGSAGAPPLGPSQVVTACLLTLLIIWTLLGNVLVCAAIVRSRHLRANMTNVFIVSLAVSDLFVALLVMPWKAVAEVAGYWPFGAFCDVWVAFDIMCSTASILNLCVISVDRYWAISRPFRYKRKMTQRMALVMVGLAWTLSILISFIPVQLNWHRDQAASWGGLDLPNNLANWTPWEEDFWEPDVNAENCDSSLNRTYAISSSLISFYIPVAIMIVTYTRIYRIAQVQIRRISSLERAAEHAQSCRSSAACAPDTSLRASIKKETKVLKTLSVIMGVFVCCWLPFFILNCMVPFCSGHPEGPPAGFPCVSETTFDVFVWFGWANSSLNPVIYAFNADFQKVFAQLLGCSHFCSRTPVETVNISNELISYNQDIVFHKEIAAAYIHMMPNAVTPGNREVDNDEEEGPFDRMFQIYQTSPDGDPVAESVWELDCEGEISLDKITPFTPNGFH
Chain of hDAT (Q01959 whole entry): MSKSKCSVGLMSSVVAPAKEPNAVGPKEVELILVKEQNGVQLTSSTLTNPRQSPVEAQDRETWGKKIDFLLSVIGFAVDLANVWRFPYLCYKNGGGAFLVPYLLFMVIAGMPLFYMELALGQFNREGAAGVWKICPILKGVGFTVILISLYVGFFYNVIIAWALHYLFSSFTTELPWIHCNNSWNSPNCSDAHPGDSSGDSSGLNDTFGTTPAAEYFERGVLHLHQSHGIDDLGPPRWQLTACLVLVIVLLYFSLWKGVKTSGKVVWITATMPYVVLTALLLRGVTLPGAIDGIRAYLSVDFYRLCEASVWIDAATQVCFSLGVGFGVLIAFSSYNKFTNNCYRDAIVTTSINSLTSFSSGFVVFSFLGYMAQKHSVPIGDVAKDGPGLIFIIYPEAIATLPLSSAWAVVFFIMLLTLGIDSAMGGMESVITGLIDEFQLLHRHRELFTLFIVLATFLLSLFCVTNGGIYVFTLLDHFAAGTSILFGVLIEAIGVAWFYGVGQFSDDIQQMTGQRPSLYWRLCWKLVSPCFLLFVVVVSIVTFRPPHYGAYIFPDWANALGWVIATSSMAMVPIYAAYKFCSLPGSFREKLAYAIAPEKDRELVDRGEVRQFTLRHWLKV
Chain of H1 (P35367 whole entry): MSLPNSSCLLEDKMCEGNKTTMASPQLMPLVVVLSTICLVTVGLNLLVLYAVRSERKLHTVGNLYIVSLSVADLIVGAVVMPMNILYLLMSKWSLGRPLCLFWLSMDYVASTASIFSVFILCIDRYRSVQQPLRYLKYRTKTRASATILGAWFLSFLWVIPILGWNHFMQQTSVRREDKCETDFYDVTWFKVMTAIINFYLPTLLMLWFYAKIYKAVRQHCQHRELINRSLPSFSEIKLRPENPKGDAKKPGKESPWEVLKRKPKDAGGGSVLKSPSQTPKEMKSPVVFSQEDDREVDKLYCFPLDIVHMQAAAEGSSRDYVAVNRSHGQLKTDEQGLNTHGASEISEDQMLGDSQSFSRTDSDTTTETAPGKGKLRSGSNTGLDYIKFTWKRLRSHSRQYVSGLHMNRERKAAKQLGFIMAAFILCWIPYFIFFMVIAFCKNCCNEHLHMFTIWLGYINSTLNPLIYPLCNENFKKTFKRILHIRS
Chain of A2B2 (P12389 28-511): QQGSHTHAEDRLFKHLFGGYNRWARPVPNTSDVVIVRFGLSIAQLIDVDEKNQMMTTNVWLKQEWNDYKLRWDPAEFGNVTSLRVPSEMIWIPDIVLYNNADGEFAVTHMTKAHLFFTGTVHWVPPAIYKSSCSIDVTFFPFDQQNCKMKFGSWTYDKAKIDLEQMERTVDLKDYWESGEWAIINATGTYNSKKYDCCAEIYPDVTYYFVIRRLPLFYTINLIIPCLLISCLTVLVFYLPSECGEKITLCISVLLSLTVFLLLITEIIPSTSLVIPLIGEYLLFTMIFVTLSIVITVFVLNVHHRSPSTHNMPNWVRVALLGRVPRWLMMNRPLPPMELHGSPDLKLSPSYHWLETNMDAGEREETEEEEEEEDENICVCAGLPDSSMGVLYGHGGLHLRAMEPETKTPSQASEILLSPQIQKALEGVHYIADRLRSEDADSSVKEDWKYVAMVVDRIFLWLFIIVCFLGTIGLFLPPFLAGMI
Chain of A2B2 (P12390 25-500): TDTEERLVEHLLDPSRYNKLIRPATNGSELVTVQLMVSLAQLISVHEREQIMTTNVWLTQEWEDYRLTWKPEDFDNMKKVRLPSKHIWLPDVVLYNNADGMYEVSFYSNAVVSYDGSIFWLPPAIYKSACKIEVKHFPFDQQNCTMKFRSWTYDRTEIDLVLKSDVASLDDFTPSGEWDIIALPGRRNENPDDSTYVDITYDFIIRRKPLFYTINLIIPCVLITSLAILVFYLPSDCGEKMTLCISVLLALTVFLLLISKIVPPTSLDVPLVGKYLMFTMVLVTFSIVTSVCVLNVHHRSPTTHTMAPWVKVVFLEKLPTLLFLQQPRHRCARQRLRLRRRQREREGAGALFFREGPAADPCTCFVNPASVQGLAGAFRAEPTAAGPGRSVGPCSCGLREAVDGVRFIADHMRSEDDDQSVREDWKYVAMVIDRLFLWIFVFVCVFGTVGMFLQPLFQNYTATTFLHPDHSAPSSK
Chain of NET (norepinephrine transporter) (P23975 whole entry, species assumed): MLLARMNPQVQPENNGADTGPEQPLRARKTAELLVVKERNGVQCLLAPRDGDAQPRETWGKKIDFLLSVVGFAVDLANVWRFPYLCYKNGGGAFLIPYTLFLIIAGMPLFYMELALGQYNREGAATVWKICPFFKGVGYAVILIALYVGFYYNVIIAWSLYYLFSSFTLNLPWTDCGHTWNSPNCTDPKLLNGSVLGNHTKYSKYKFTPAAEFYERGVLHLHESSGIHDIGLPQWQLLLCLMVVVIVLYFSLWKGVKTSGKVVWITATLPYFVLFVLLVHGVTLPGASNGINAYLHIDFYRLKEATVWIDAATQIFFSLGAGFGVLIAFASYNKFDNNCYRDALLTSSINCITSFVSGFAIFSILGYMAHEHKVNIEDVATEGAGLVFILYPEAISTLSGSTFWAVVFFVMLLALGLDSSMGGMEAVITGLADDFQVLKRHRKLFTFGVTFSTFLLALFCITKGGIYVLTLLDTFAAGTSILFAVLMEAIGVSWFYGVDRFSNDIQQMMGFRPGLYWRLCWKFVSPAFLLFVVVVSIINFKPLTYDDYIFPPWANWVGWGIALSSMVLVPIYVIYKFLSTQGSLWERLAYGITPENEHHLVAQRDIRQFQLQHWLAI
Chain of 5-ht5a (P47898 whole entry, species assumed): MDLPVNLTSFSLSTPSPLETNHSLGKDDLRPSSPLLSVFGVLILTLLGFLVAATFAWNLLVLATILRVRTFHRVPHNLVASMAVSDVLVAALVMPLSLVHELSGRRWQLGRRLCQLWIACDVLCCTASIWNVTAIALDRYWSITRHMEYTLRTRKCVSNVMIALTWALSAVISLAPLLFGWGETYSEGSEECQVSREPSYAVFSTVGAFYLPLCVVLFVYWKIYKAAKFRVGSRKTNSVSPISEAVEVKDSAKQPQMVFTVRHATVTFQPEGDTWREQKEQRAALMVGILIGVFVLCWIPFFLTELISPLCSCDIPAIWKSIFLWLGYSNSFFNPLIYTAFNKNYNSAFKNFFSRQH
Chain of 5-HT1B (P28222 whole entry, species assumed): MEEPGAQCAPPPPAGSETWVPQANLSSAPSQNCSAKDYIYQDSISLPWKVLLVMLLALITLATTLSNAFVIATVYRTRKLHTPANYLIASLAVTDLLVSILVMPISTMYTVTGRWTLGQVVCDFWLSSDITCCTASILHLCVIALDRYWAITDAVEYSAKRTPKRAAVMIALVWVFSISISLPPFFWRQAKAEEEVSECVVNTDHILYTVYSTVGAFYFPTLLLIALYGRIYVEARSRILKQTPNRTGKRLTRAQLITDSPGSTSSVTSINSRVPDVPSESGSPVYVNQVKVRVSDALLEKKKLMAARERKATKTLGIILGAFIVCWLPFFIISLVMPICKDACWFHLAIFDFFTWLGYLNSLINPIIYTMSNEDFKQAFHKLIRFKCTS
Chain of Beta1 (P08588 whole entry): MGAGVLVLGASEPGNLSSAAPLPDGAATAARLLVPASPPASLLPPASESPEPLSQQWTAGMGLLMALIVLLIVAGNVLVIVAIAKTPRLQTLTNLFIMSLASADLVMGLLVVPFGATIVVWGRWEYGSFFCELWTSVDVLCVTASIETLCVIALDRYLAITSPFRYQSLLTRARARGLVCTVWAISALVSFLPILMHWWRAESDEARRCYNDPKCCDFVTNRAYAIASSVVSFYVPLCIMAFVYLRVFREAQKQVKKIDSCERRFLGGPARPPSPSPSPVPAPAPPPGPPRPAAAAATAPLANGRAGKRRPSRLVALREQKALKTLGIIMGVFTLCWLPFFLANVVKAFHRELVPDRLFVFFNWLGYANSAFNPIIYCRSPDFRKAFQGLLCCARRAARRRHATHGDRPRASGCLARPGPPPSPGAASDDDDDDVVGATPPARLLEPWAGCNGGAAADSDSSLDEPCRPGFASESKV

| SMILES | Ki (A2B2) | Ki [1] | inhibition at 10 µM [1] | Ki (hDAT) | Ki (M2) | Ki (Beta1) | Ki (Alpha1D) | Ki (Alpha2B) | Ki (5-HT1B) | Ki (D5) | Ki (H1) | Ki (M4) | Ki (5-HT2C) | Ki (5-ht5a) |
| --- | --- | --- | --- | --- | --- | --- | --- | --- | --- | --- | --- | --- | --- | --- |
| CCNC1(c2cccc(OC)c2)CCCCC1=O (racemic) [Methoxetamine, (RS)-2-(ethylamino)-2-(3-methoxyphenyl)cyclohexanone] | > 10 µM | > 10 µM | < 50% | > 10 µM | > 10 µM | > 10 µM | > 10 µM | > 10 µM | > 10 µM | > 10 µM | 2.96 µM | > 10 µM | > 10 µM | > 10 µM |
| COc1cccc(C2(N3CCCCC3)CCCCC2)c1 [3-MeO-PCP, 1-[1-(3-methoxyphenyl)cyclohexyl]piperidine] | > 10 µM | > 10 µM | < 50% | 0.743 µM | > 10 µM | > 10 µM | > 10 µM | > 10 µM | > 10 µM | > 10 µM | > 10 µM | > 10 µM | > 10 µM | > 10 µM |
| COc1ccc(C2(N3CCCCC3)CCCCC2)cc1 [4-MeO-PCP, 1-[1-(4-methoxyphenyl)cyclohexyl]piperidine] | > 10 µM | 0.713 µM | – | > 10 µM | > 10 µM | > 10 µM | > 10 µM | > 10 µM | > 10 µM | > 10 µM | > 10 µM | > 10 µM | > 10 µM | > 10 µM |
